These results are taken from patent EP0705816B1, “BENZENE DERIVATIVE USEFUL FOR ISCHEMIC DISEASES” (Chugai Seiyaku Kabushiki Kaisha, priority 1993, dated 1995).

In test [1] the test system is ventricular myocytes. The experiment in a line: Inhibitory action on calcium overload in vitro, Method B: veratridine-treated myocytes. In kind it is cell-based, male Sprague-Dawley rat. As to conditions: 50 µg/ml of veratridine, read-out: Concentration at Which Cells Survived Almost Completely. As to the method:
(§1) Incubated ventricular myocytes were prepared from the heart of male Sprague-Dawley rat weighing 300 to 500 g, using an enzyme-perfusion method. […]
The efficacy was evaluated in the same manner as in Method A, except for using 50 µg/ml of veratridine in place of veratrine (100 µg/ml).

Test [2] concerns rabbit LDL. The test can be described thus: Inhibitory action on lipid peroxidation in vitro, Method B: CuSO4 oxidation of LDL, TBARS by fluorometry. In kind it is biochemical. The settings on record: 1 x 10^-5 M, CuSO4 1 µM, 37°C, 24 hours, 10 µM. As to the method: A test compound was added to rabbit LDL prepared according to the method of Havel, et al. (Havel RJ, et al., J. Clin. Invest., 34, 1345 (1955)), and then CuSO4 was added to a final concentration of 1 µM. Oxidation of LDL was performed by shaking at 37°C for 24 hours. The generated TBARS was measured by the method of Yagi utilizing fluorometry (Yagi, K., Biochem. Med., 15, 212 (1976)).

Test [3] relates to ventricular myocytes. The test can be described thus: Inhibitory action on calcium overload in vitro, Method A: veratrine-treated myocytes. In kind it is cell-based, male Sprague-Dawley rat. On the set-up: key: ++: The cells survived almost completely at 10^-7 M.; The cells died almost completely at 10 M^-8 M. As to conditions: compound 30 minutes, then 100 µg/ml of veratrine; shape of cells observed five minutes later. As to the method:
as §1

Test [4] relates to rabbit LDL. The test can be described thus: Inhibitory action on lipid peroxidation in vitro, Method A: oxidation of LDL by soybean lipoxygenase, fluorescence of the LDL fraction. In kind it is biochemical. The settings on record: fluorescence intensity of LDL fraction, SLO 40 µg/ml, 37°C, 24 hours. As to the method:
A test compound was added to rabbit LDL prepared according to the method of Havel, et al. (Havel RJ et al., J. Clin. Invest., 34, 1345 (1955)), and then a soybean lipoxygenase type-IS (SLO) was added to a final concentration of 40 µg/ml. Oxydation of LDL was carried out by incubating at 37°C in a CO2 incubator for 24 hours. The oxidized LDL solution was analyzed by gel-permeation chromatography, and the fluorescence intensity of the LDL fraction was measured at an excitation wavelength of 360 nm and an emission wavelength of 430 nm.

[5] abbreviates: Rattus norvegicus, Ventricular myocyte.

Structures are written as SMILES. Read-outs that look alike come from different tables or passages of the source.

With `CC1SC(c2cc(C(C)(C)C)c(O)c(C(C)(C)C)c2)N(CCCN(C)CCOc2ccc3c(c2)OCO3)C1=O` (single isomer, unassigned; (+)) [Compound (74), (+)-2,5-Cis-2-(3,5-di-tert-butyl-4-hydroxyphenyl)-3-[3-[N-methyl-N-[2-(3,4-methylenedioxyphenoxy)ethyl]amino]propyl]-5-methyl-1,3-thiazolidin-4-one], in the test on ventricular myocytes [1] (setting [5]), the minimal effective concentration is 0.32 µM.
For `CN(CCCN1C(=O)C(CCO)SC1c1cc(C(C)(C)C)c(O)c(C(C)(C)C)c1)CCOc1ccc2c(c1)OCO2` (centres unmarked) [Compound (49), 2-(3,5-Di-tert-butyl-4-hydroxyphenyl)-3-[3-[N-methyl-N-[2-(3,4-methylenedioxyphenoxy)ethyl]amino]propyl]-5-(2-hydroxyethyl)-1,3-thiazolidin-4-one], the “% of Control” value in the test on rabbit LDL [2] is listed as 15.7%.
As to `CN(CCCN1C(=O)CSC1c1cc(C(C)(C)C)c(O)c(C(C)(C)C)c1)CCOc1ccc2c(c1)OCO2` (centres unmarked) [Compound (26), 2-(3,5-Di-tert-butyl-4-hydroxyphenyl)-3-[3-[N-methyl-N-[2-(3,4-methylenedioxyphenoxy)ethyl]amino]propyl]-1,3-thiazolidin-4-one], the “Survival Rate of Cells” value in the test with ventricular myocytes [3] is “++”.
For `COc1ccc(CCN(C)CCCN2C(=O)CSC2c2cc(C(C)(C)C)c(O)c(C(C)(C)C)c2)cc1OC` (centres unmarked) [Compound (20)], the “Survival Rate of Cells” value in the test with ventricular myocytes [3] is reported as “+”. The “% of Control” value in the test with rabbit LDL [2] is 21.3%. Besides, the “Percent (%) of Control” value with rabbit LDL [4] (5 x 10^-6 M) was determined as 0.6%; in the test with rabbit LDL [4] (5 x 10^-7 M, 0.5 µM), 8.7%.
On to `CN(CCCN1C(=O)CSC1c1cc(C(C)(C)C)c(O)c(C(C)(C)C)c1)CCOc1ccc2c(c1)OCO2` (single isomer, unassigned; (-)) [Compound (71), (-)-2-(3,5-Di-tert-butyl-4-hydroxyphenyl)-3-[3-[N-methyl-N-[2-(3,4-methylenedioxyphenoxy)ethyl]amino]propyl]-1,3-thiazolidin-4-one], for which the “% of Control” value with rabbit LDL [2] was 23.8%. For the same compound, the “Percent (%) of Control” value in the test on rabbit LDL [4] (5 x 10^-6 M, 5 µM) stood at 2.8%; in the test with rabbit LDL [4] (5 x 10^-7 M, 0.5 µM), 12.7%.
For the compound `CN(CCCN1C(=S)CSC1c1cc(C(C)(C)C)c(O)c(C(C)(C)C)c1)CCOc1ccc2c(c1)OCO2` (centres unmarked) [Compound (57), 2-(3,5-Di-tert-butyl-4-hydroxyphenyl)-3-[3-[N-methyl-N-[2-(3,4-methylenedioxyphenoxy)ethyl]amino]propyl]-1,3-thiazolidin-4-thione], the “% of Control” value in the test with rabbit LDL [2] was found to be 23.0%. The “Percent (%) of Control” value in the test with rabbit LDL [4] (5 x 10^-6 M) was found to be 11.3%; in the test on rabbit LDL [4] (5 x 10^-7 M, 0.5 µM) it was 22.8%.
With `CN(CCCN1C(=O)C(CC(=O)N(C)C)SC1c1cc(C(C)(C)C)c(O)c(C(C)(C)C)c1)CCOc1ccc2c(c1)OCO2` (centres unmarked) [Compound (51)], in the test with rabbit LDL [2], the “% of Control” value is listed as 16.6%.
Consider `CN(CCCCN1C(=O)CSC1c1cc(C(C)(C)C)c(O)c(C(C)(C)C)c1)CCOc1ccc2c(c1)OCO2` (centres unmarked) [Compound (8)], for which the “Survival Rate of Cells” value with ventricular myocytes [3] is “++”.
`COc1ccc([C@@H]2Sc3ccccc3N(CCN(C)C)C(=O)[C@@H]2OC(C)=O)cc1` [Diltiazem, reference compound]: the “Survival Rate of Cells” value in the test on ventricular myocytes [3] is “-”. Also, in the test with rabbit LDL [2], the “% of Control” value came to 96.9%. Besides, the “Percent (%) of Control” value in the test on rabbit LDL [4] (5 x 10^-6 M) is recorded as 110.7%; with rabbit LDL [4] (5 x 10^-7 M, 0.5 µM), 109.1%. Further, the minimal effective concentration in the test on ventricular myocytes [1] (Rattus norvegicus, Ventricular myocyte, symbol defined by footnote) is over 1 µM.
As for `CCOC(=O)CC1SC(c2cc(C(C)(C)C)c(O)c(C(C)(C)C)c2)N(CCCN(C)CCOc2ccc3c(c2)OCO3)C1=O` (centres unmarked) [Compound (46), 2-(3,5-Di-tert-butyl-4-hydroxyphenyl)-3-[3-[N-methyl-N-[2-(3,4-methylenedioxyphenoxy)ethyl]amino]propyl]-5-ethoxycarbonylmethyl-1,3-thiazolidin-4-one], in the test with rabbit LDL [2], the “% of Control” value was determined as 20.4%.
As for `CC1SC(c2cc(C(C)(C)C)c(O)c(C(C)(C)C)c2)N(CCCN(C)CCOc2ccc3c(c2)OCO3)C1=O` (centres unmarked) [Compound (41), 2-(3,5-Di-tert-butyl-4-hydroxyphenyl)-3-[3-[N-methyl-N-[2-(3,4-methylenedioxyphenoxy)ethyl]amino]propyl]-5-methyl-1,3-thiazolidin-4-one], in the test with rabbit LDL [2], the “% of Control” value came to 26.3%. Besides, the “Percent (%) of Control” value in the test with rabbit LDL [4] (5 x 10^-6 M) is 6.2%; in the test with rabbit LDL [4] (5 x 10^-7 M, 0.5 µM) it was 18.3%.
For `CN(CCCOc1ccc2c(c1)OCO2)CCCN1C(=O)CSC1c1cc(C(C)(C)C)c(O)c(C(C)(C)C)c1` (centres unmarked) [Compound (17)], the “% of Control” value in the test with rabbit LDL [2] was 21.0%. The “Percent (%) of Control” value in the test with rabbit LDL [4] (5 x 10^-6 M) was found to be 3.9%; in the test on rabbit LDL [4] (5 x 10^-7 M, 0.5 µM), 16.4%. The minimal effective concentration in the test on ventricular myocytes [1] (setting [5]) stood at 0.32 µM.
On to `CCN(CCCN1C(=O)CSC1c1cc(C(C)(C)C)c(O)c(C(C)(C)C)c1)CCOc1ccc2c(c1)OCO2` (centres unmarked) [Compound (12)], for which the “Survival Rate of Cells” value in the test with ventricular myocytes [3] was “++”. Moreover, the “% of Control” value in the test on rabbit LDL [2] amounted to 25.9%. Further, the “Percent (%) of Control” value with rabbit LDL [4] (5 x 10^-6 M) was determined as 6.4%; in the test on rabbit LDL [4] (5 x 10^-7 M, 0.5 µM), 16.8%.
Consider `CC(C)(C)c1cc(C2SCC(=O)N2CCCN2CCC(Oc3ccc4c(c3)OCO4)CC2)cc(C(C)(C)C)c1O` (centres unmarked) [Compound (34)], for which the “% of Control” value with rabbit LDL [2] was 20.5%. Also, in the test with ventricular myocytes [1] (setting [5]), the minimal effective concentration was found to be 0.32 µM.
As for `CC1SC(c2cc(C(C)(C)C)c(O)c(C(C)(C)C)c2)N(CCCN(C)CCOc2ccc3c(c2)OCO3)C1=O` (single isomer, unassigned; (-)) [Compound (75), (-)-2,5-Cis-2-(3,5-di-tert-butyl-4-hydroxyphenyl)-3-[3-[N-methyl-N-[2-(3,4-methylenedioxyphenoxy)ethyl]amino]propyl]-5-methyl-1,3-thiazolidin-4-one], the minimal effective concentration in the test with ventricular myocytes [1] was 0.32 µM.
Regarding `C[C@H]1S[C@H](c2cc(C(C)(C)C)c(O)c(C(C)(C)C)c2)N(CCCN(C)CCOc2ccc3c(c2)OCO3)C1=O` (relative stereo) [Compound (72), 2,5-Trans-2-(3,5-di-tert-butyl-4-hydroxyphenyl)-3-[3-[N-methyl-[2-(3,4-methylenedioxyphenoxy)ethyl]amino]propyl]-5-methyl-1,3-thiazolidin-4-one], in the test with ventricular myocytes [1] (setting [5]), the minimal effective concentration worked out at 0.32 µM.
For the compound `CN(CCCN1C(=O)C(OCCO)SC1c1cc(C(C)(C)C)c(O)c(C(C)(C)C)c1)CCOc1ccc2c(c1)OCO2` (centres unmarked) [Compound (55)], in the test with rabbit LDL [2], the “% of Control” value turned out to be 20.0%.
Consider `CN(CCCN1C(=O)CSC1c1cc(C(C)(C)C)c(O)c(C(C)(C)C)c1)CCOc1ccc2c(c1)OCO2` (single isomer, unassigned; (+)) [Compound (70), (+)-2-(3,5-Di-tert-butyl-4-hydroxyphenyl)-3-[3-[N-methyl-N-[2-(3,4-methylenedioxyphenoxy)ethyl]amino]propyl]-1,3-thiazolidin-4-one], for which the “% of Control” value in the test on rabbit LDL [2] came to 21.1%. For the same compound, the “Percent (%) of Control” value worked out at 5.1% in the test on rabbit LDL [4] (5 x 10^-6 M, 5 µM) and 15.2% in the test with rabbit LDL [4] (5 x 10^-7 M, 0.5 µM).
With `CN(CCCCCN1C(=O)CSC1c1cc(C(C)(C)C)c(O)c(C(C)(C)C)c1)CCOc1ccc2c(c1)OCO2` (centres unmarked) [Compound (9)], the “Survival Rate of Cells” value in the test on ventricular myocytes [3] is “++”. Also, the “% of Control” value in the test with rabbit LDL [2] came out at 26.4%. For the same compound, the “Percent (%) of Control” value in the test on rabbit LDL [4] (5 x 10^-6 M) is 5.9%; in the test on rabbit LDL [4] (5 x 10^-7 M, 0.5 µM), 13.5%.
